From PMC10046369, “Low-Affinity/High-Selectivity Dopamine Transport Inhibition Sufficient to Rescue Cognitive Functions in the Aging Rat” (Biomolecules, 2023)
Values belong to the molecule of their own block, whether it stands above or below them.

Key:
Assay in all cases: cell-based
Design in all cases: Eurofins Cerep functional GPCR antagonist assay, reference antagonists
[1] = target: T1, 5HT1B (h) (Homo sapiens, UniProt P28222)
T1 construct: gene HTR1B

[2] = target: T1, 5HT1B (h); remark: listed apart in the source
[3] = target: T2, P2Y1 (h) (Homo sapiens, UniProt P47900)
T2 construct: gene P2RY1
T2 sequence (P47900 whole entry): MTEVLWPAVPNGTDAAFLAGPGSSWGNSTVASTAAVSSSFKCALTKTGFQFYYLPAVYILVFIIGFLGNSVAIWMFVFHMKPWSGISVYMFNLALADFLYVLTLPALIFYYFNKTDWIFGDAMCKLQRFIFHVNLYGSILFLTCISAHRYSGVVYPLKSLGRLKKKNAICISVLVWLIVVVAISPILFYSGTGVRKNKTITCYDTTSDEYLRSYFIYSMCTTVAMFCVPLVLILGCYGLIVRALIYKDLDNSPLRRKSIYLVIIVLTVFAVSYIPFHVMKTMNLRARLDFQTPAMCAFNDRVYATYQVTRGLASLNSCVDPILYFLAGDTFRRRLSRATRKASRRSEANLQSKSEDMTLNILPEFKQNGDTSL

[4] = target: T2, P2Y1 (h); remark: listed apart in the source
[5] = target: T3, 5-HT2B (h) (Homo sapiens, UniProt P41595)
T3 construct: gene HTR2B
T3 sequence (P41595 whole entry): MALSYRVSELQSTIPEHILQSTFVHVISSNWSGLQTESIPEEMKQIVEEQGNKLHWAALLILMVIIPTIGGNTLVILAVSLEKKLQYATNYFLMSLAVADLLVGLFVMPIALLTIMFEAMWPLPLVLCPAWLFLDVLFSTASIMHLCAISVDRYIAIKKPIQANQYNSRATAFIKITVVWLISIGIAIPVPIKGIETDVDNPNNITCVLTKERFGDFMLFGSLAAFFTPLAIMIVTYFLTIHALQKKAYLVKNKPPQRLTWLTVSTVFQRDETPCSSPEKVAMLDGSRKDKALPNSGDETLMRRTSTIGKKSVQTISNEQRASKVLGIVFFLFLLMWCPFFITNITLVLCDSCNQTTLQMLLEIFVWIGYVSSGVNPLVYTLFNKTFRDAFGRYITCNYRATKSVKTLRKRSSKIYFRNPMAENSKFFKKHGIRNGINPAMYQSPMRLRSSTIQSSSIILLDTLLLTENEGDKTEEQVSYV

[6] = target: T3, 5-HT2B (h); remark: listed apart in the source

T1 sequence (P28222 whole entry): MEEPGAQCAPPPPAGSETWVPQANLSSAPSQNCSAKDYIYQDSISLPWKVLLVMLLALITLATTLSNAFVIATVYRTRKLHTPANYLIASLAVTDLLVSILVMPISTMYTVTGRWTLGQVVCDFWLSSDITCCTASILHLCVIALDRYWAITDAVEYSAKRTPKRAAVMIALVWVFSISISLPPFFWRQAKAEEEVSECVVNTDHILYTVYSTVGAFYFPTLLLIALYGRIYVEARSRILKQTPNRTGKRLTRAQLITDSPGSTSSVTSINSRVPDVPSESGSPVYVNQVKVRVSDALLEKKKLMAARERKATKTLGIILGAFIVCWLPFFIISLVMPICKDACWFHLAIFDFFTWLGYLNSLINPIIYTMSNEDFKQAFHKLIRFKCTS

SMILES: CN(C)CCCc1cc(C(=O)Nc2ccc(-c3ccncc3)cc2)ccc1O [GR55562]
Kb [1]: 11 nM | IC50 [2]: 69 nM

SMILES: CNc1nc(I)nc2c1ncn2[C@H]1C[C@H](OP(=O)(O)O)[C@]2(COP(=O)(O)O)C[C@H]12 [MRS 2500]
Kb [3]: 0.43 nM | IC50 [4]: 1.9 nM

Kb [5]: 2.9 nM | IC50 [6]: 19 nM
SMILES: Cn1ccc2cc3c(cc21)CCN3C(=O)Nc1cccnc1 [SB 206553]
